Reference: US20260234543A1, “MICROORGANISMS AND METHODS FOR REDUCING BY-PRODUCTS” (Genomatica, Inc., priority 2023, published 2026)

What was measured:
[1] = system: acyl-CoA synthetase (ACS) (SEQ ID NO: 1); assay: ACS activity on substrates of various chain lengths (enzymatic coupled assay for detection of AMP); type: biochemical, Ruegeria pomeroyi; settings: 5 mM substrate, pH 7.5; for Activity: 250 μM CoA, 1 mM ATP
Method: Purified acyl-CoA synthetase (ACS) (GenBank Accession No. WP_011046428.1; see, SEQ ID NO: 1) was assayed for activity on a range of substrates of various chain lengths. The substrates tested, which were conjugate bases (or carboxylates) of C2-C8 carboxylic acids, included acetate (C2), acetoacetate (C4), butyrate (C4), (R)- and(S)-3-hydroxybutryate ((R)-3-HB and(S)-3HB; C4), succinate (C4), hexanoate (C6), adipate (C6), 6-aminocaproic acid (6ACA; C6), and octanoate (C8).
An enzymatic coupled assay for detection of AMP, which is a co-product of the synthetase/ligase enzymatic reaction catalyzed by the ACS/CoA ligase, was used. The coupling enzymes used were adenylate kinase, pyruvate dehydrogenase, and lactate dehydrogenase, which catalyze reactions resulting in the oxidation of 2 NADH molecules per molecule of AMP produced by the ACS/CoA ligase enzymatic reaction. The coupling reagents for AMP detection were phospho (enol) pyruvate and NADH. The ACS/CoA ligase enzymatic reactions were followed by monitoring NADH oxidation over time, by measuring absorbance at 340 nm.
Reactions were set up in 96-well absorbance plates, in aqueous buffer at pH 7.5, and 5 mM of conjugate base substrate, 250 μM of Coenzyme A (CoA), 1 mM of ATP, 5 mM of MgCl2, 1 mM of phospho (enol) pyruvate, 500 μM of NADH, and non-rate limiting concentrations of the three coupling enzymes (adenylate kinase, pyruvate dehydrogenase, and lactate dehydrogenase), were added for each reaction. The ACS enzyme was added at a concentration that was appropriate for measuring a linear change on absorbance over up to 20 minutes. For example, 100 nM of ACS was added for the reactions with butyrate or 3-HB as the substrates. Negative control reactions omitted the substrate (conjugate base), the CoA, or the ACS enzyme.

[2] = system: CAR enzyme (SEQ ID NO: 3); assay: In vitro CAR activity for conversion of 3HB to 3HB-Ald (NADPH absorbance at 340 nm); type: biochemical, Mycobacterium avium; settings: for CAR Activity: 1 μM CAR, 0.5 mM NADPH, 1 mM ATP
Method: In vitro CAR activity for the conversion of 3HB to 3HB—Ald was determined by direct measurement of the decrease in NADPH concentration, by measuring NADPH absorbance at 340 nm over time. The reactions were carried out in 96-well absorbance plates, and varying concentrations of 3HB substrate (see, TABLE 8 below), 0.5 mM of NADPH, 1 mM of ATP, 5 mM of MgCl2, and 1 μM of CAR enzyme (see, SEQ ID NO: 3) were added. A negative control reaction was included, in which addition of 3HB substrate was omitted. CAR activity was measured as μM of NADPH oxidized per minute per μM of CAR enzyme.

Structure (SMILES) | Activity [1] | ACS activity on substrate (in words) [1] | also measured
NCCCCCC(=O)O [Strain 6ACA, 6-aminocaproic acid] | 0.015 μM AMP/min/μM ACS | exhibits activity | –
CC(=O)O [Acetate] | 38 μM AMP/min/μM ACS | exhibits activity | –
CCCCCCCC(=O)O [Octanoate, octanoate] | No activity | – | –
O=C(O)CCCCC(=O)O [Adipate, adipate] | No activity | – | –
C[C@@H](O)CC(=O)O [(R)-3HB, (3R)-hydroxybutyrate] | 322 μM AMP/min/μM ACS | – | –
O=C(O)CCC(=O)O [Succinate, succinate] | 0.06 μM AMP/min/μM ACS | exhibits activity | –
CC(=O)CC(=O)O [Acetoacetate] | 34 μM AMP/min/μM ACS | exhibits activity | –
CC(O)CC(=O)O (stereo not drawn) [Strain 3HB, 3-hydroxybutyrate] | – | has activity on both the (R) and(S) forms | CAR activity as a function of 3HB concentration (in words) ([2]; 0.78125-50 mM 3HB): CAR activity increases as the concentration of 3HB substrate increases; CAR Activity ([2]; 3HB substrate 0.78125 mM): 0.47 μM NADPH oxidized/min/μM CAR; CAR Activity ([2]; 3HB substrate 1.5625 mM): 1.30 μM NADPH oxidized/min/μM CAR; CAR Activity ([2]; 3HB substrate 3.125 mM): 2.61 μM NADPH oxidized/min/μM CAR; CAR Activity ([2]; 3HB substrate 6.25 mM): 4.24 μM NADPH oxidized/min/μM CAR; CAR Activity ([2]; 3HB substrate 12.5 mM): 5.87 μM NADPH oxidized/min/μM CAR; CAR Activity ([2]; 3HB substrate 25 mM): 8.81 μM NADPH oxidized/min/μM CAR; CAR Activity ([2]; 3HB substrate 50 mM): 10.25 μM NADPH oxidized/min/μM CAR
C[C@H](O)CC(=O)O [(S)-3HB, (3S)-hydroxybutyrate] | 222 μM AMP/min/μM ACS | – | –
